# Experimental data reported in US8673888B2, “Depsipeptide for therapy of kidney cancer” (The United States of America, represented by the Secretary, …, priority 2002, dated 2014).
# What was measured:
# [1] = test system: clear cell renal carcinoma; test: Antineoplastic response in a patient with clear cell renal carcinoma (RECIST criteria); format: in vivo, human
# Protocol: This patient was a person with a history of clear cell renal carcinoma that was diagnosed in 1996. The patient received a total of 10 doses of FR901228: FR901228 was administered at 9.10 mg/m^2 on day 1 and day 5 of the first cycle (21 days), 9.10 mg/m^2 on day 1 of the second cycle (21 days), 9.10 mg/m^2 on day 1 and day 5 of the third cycle (28 days), 9.10 mg/m^2 on day 1 of the fourth cycle (22 days), 12.70 mg/m^2 on day 1 of the fifth cycle (20 days), 17.8 mg/m^2 on day 1 of the sixth cycle (23 days), 17.8 mg/m^2 on day 1 of the seventh cycle (23 days) and 17.8 mg/m^2 on day 1 of the eighth cycle (21 days) by continuous infusion for 4 hours. The treatment effect was evaluated based on the RECIST criteria.
# [2] = test system: human kidney tumor (RXF-631L); test: Antitumor effect on human renal tumor xenograft (RXF-631L) in nude mice; format: in vivo, mouse; conditions: RXF-631L s.c. xenograft in nude mice; 3.2 and 1.8 mg/kg i.v. q4d×3; FIG. 1
# Protocol: A recommended amount of FR901228 was weighed, a solvent (10% HCO-60 (Nihon Surfactant Kogyo K.K./saline) was added and the mixture was ultrasonicated for dissolution. The positive control substance, Taxol, was dissolved in Cremophor EL (SIGMA/ethanol (1:1)) to a concentration of 24 mg/mL before test and preserved in refrigerator. When in use, a 9-fold amount of physiological saline was added to dilute the substance to 2.4 mg/mL (solvent component: 5% Cremophor EL-5% ethanol-90% saline).
# For the antitumor activity test of the drug, BALB/cANnNCrj-nu/nu mice (female, 6-week-old) were purchased from Charles River Japan (Yokohama, Japan), and after acclimation for more than 1 week, subjected to the test. The mice were reared in an SPF environment, where free access to water and feed was allowed. […]
# Fragments (3×3×3 mm) of RXF-631L tumor were subcutaneously implanted into the right flank of BALB/cANnNCrj-nu/nu mice. […] The tumor volume was calculated from the formula: tumor volume (mm^3)=½×L×W^2 where L and W represent the length and width of the tumor mass, respectively.
# The administration was started on the day the mice were grouped (Day 0). […] The liquid amount of administration was calculated based on the body weight measured on the day of administration (0.1 mL/10 g body weight).
# The tumor size (length, width) and body weight were measured twice a week from Day 0.
compound,measurement,setting,value
C/C=C1\NC(=O)[C@H]2CSSCC/C=C/[C@H](CC(=O)N[C@H](C(C)C)C(=O)N2)OC(=O)[C@H](C(C)C)NC1=O [FR901228],treatment effect (RECIST criteria),"[1]; one patient, 9.10 mg/m^2 by 4 h continuous infusion, after the first two cycles",partial response
same,treatment effect (RECIST criteria),"[1]; same patient, 10 doses of 9.10-17.8 mg/m^2, after cycle 8",disease progression
same,growth of human kidney cancer in vivo (tumor size),[2],suppressed the growth
